# Source: ChEMBL document CHEMBL1201862, “PubChem BioAssay data set” (2004)
#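 48-hour exposure; five concentrations; linearly interpolated endpoints. The concentration for 50% growth inhibition is given as GI50.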 The source made the active and inactive calls. No stated cut-off is given here; in the data, active = GI50 up to about 1.1 µM and inactive = higher.
# Key:
# Test in all cases: NCI tumour cell line growth inhibition, 48 h
# SR = tested on: SR
# SK-MEL-28 = tested on: SK-MEL-28
# DU-145 = tested on: DU-145
# SNB-75 = tested on: SNB-75
# HCC 2998 = tested on: HCC 2998
# KM12 = tested on: KM12
# MDA-MB-231 = tested on: MDA-MB-231
# HCT-15 = tested on: HCT-15
# SF-539 = tested on: SF-539
# SNB-19 = tested on: SNB-19
# NCI-H460 = tested on: NCI-H460
# MOLT-4 = tested on: MOLT-4
# 786-0 = tested on: 786-0
# MDA-N = tested on: MDA-N
# CAKI-1 = tested on: CAKI-1
# SK-MEL-2 = tested on: SK-MEL-2
# SK-MEL-5 = tested on: SK-MEL-5
# PC-3 = tested on: PC-3
# RPMI-8226 = tested on: RPMI-8226
# HOP-92 = tested on: HOP-92
SMILES,GI50 (SR),GI50 (SK-MEL-28),GI50 (DU-145),GI50 (SNB-75),GI50 (HCC 2998),GI50 (KM12),GI50 (MDA-MB-231),GI50 (HCT-15) [µM],GI50 (SF-539),GI50 (SNB-19),GI50 (NCI-H460),GI50 (MOLT-4),GI50 (786-0),GI50 (MDA-N),GI50 (CAKI-1),GI50 (SK-MEL-2),GI50 (SK-MEL-5),GI50 (PC-3),GI50 (RPMI-8226),GI50 (HOP-92)
COC(=O)[C@@H]1C[C@H]2[C@H](c3ccccc3Br)[C@@H](OC(C)=O)[C@@H](OCc3ccccc3)ON2O1,> 100 µM (inactive),> 100 µM (inactive),> 100 µM (inactive),> 100 µM (inactive),51.9 µM (inactive),> 100 µM (inactive),> 100 µM (inactive),> 100,> 100 µM (inactive),> 100 µM (inactive),92.3 µM (inactive),45.3 µM (inactive),> 100 µM (inactive),> 100 µM (inactive),> 100 µM (inactive),69.2 µM (inactive),> 100 µM (inactive),> 100 µM (inactive),–,–
CCc1n[nH]c(=O)n1/N=C/c1ccccc1O,> 100 µM (inactive),> 100 µM (inactive),> 100 µM (inactive),> 100 µM (inactive),> 100 µM (inactive),> 100 µM (inactive),> 100 µM (inactive),> 100,> 100 µM (inactive),> 100 µM (inactive),–,> 100 µM (inactive),> 100 µM (inactive),> 100 µM (inactive),–,> 100 µM (inactive),> 100 µM (inactive),> 100 µM (inactive),> 100 µM (inactive),> 100 µM (inactive)
COC(=O)[C@@H]1Cc2ccc(OC)c(c2)OCCC(=O)N1,32.6 µM (inactive),> 100 µM (inactive),> 100 µM (inactive),> 100 µM (inactive),> 100 µM (inactive),> 100 µM (inactive),> 100 µM (inactive),> 100,–,> 100 µM (inactive),–,> 100 µM (inactive),> 100 µM (inactive),> 100 µM (inactive),> 100 µM (inactive),> 100 µM (inactive),> 100 µM (inactive),> 100 µM (inactive),> 100 µM (inactive),–
N#Cc1[nH]c(=O)n(-c2ccccc2)c1N,> 10 µM (inactive),> 10 µM (inactive),> 10 µM (inactive),6.52 µM (inactive),> 10 µM (inactive),> 10 µM (inactive),> 10 µM (inactive),> 10,> 10 µM (inactive),> 10 µM (inactive),> 10 µM (inactive),> 10 µM (inactive),> 10 µM (inactive),> 10 µM (inactive),–,> 10 µM (inactive),> 10 µM (inactive),> 10 µM (inactive),> 10 µM (inactive),–
c1ccc2c(c1)Sc1ccccc1N2CCCN1c2ccccc2Sc2ccccc21,> 100 µM (inactive),> 100 µM (inactive),> 100 µM (inactive),–,> 100 µM (inactive),> 100 µM (inactive),> 100 µM (inactive),> 100,> 100 µM (inactive),> 100 µM (inactive),39.9 µM (inactive),76.4 µM (inactive),20.2 µM (inactive),> 100 µM (inactive),> 100 µM (inactive),–,> 100 µM (inactive),> 100 µM (inactive),–,> 100 µM (inactive)
COc1ccc2c(c1)CCCN1CCc3cc(OC)c(OC)cc3C21 (stereo not drawn),> 100 µM (inactive),> 100 µM (inactive),> 100 µM (inactive),> 100 µM (inactive),45.7 µM (inactive),> 100 µM (inactive),> 100 µM (inactive),> 100,35.5 µM (inactive),> 100 µM (inactive),–,50.5 µM (inactive),> 100 µM (inactive),> 100 µM (inactive),> 100 µM (inactive),–,> 100 µM (inactive),> 100 µM (inactive),71.4 µM (inactive),–
Cc1nc2ccccc2c(=O)n1NC(=O)c1ccccn1,> 100 µM (inactive),> 100 µM (inactive),> 100 µM (inactive),35.7 µM (inactive),> 100 µM (inactive),> 100 µM (inactive),> 100 µM (inactive),–,> 100 µM (inactive),> 100 µM (inactive),> 100 µM (inactive),> 100 µM (inactive),> 100 µM (inactive),> 100 µM (inactive),–,–,> 100 µM (inactive),> 100 µM (inactive),> 100 µM (inactive),> 100 µM (inactive)
CCOC(=O)CC(=O)Nc1cccc2sc3ncccc3c(=O)c12,33.3 µM (inactive),47.8 µM (inactive),84.9 µM (inactive),12.9 µM (inactive),25.9 µM (inactive),77.4 µM (inactive),60.8 µM (inactive),38.4,41.7 µM (inactive),51.3 µM (inactive),19.5 µM (inactive),10 µM (inactive),35 µM (inactive),76.7 µM (inactive),27.9 µM (inactive),34.3 µM (inactive),5.37 µM (inactive),5.81 µM (inactive),35.6 µM (inactive),–
COc1ccc(C(=O)/C=C2\c3ccccc3C(=O)N2C)cc1,33.5 µM (inactive),> 100 µM (inactive),> 100 µM (inactive),22.8 µM (inactive),–,62.8 µM (inactive),> 100 µM (inactive),36.4,64 µM (inactive),> 100 µM (inactive),36.1 µM (inactive),58.7 µM (inactive),92.3 µM (inactive),41.4 µM (inactive),36.4 µM (inactive),> 100 µM (inactive),63.4 µM (inactive),89.1 µM (inactive),41.5 µM (inactive),24.5 µM (inactive)
Cc1ccc(/N=N/c2c(O)ccc3ccccc23)cc1,11.7 µM (inactive),> 100 µM (inactive),> 100 µM (inactive),> 100 µM (inactive),–,98.6 µM (inactive),> 100 µM (inactive),64,–,95.7 µM (inactive),–,46.8 µM (inactive),> 100 µM (inactive),> 100 µM (inactive),> 100 µM (inactive),> 100 µM (inactive),> 100 µM (inactive),83 µM (inactive),99.3 µM (inactive),> 100 µM (inactive)
O=C1C(O)=C(C(CCc2ccccc2)C2=C(O)C(=O)c3ccccc3C2=O)C(=O)c2ccccc21,16.9 µM (inactive),> 100 µM (inactive),8.55 µM (inactive),45.8 µM (inactive),–,> 100 µM (inactive),66.8 µM (inactive),40.9,58.5 µM (inactive),> 100 µM (inactive),3.61 µM (inactive),–,> 100 µM (inactive),16.2 µM (inactive),> 100 µM (inactive),35.5 µM (inactive),4.08 µM (inactive),68.7 µM (inactive),16.1 µM (inactive),40 µM (inactive)
CC1(C)N=C(N)N=C(N)N1c1cccc(Cl)c1,1.73 µM (inactive),> 100 µM (inactive),17.4 µM (inactive),25.6 µM (inactive),14 µM (inactive),7.98 µM (inactive),61.8 µM (inactive),10.5,4.66 µM (inactive),> 100 µM (inactive),1.43 µM (inactive),–,0.585 µM (active),0.49 µM (active),> 100 µM (inactive),> 100 µM (inactive),22.4 µM (inactive),> 100 µM (inactive),–,42.5 µM (inactive)
